The record followed here is PubChem BioAssay (NCI).

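Results reflect a 48-hour exposure of cells in 96-well plates to compound at five concentrations. Here, GI50 denotes the concentration required for 50% inhibition of growth. TGI denotes the concentration required for complete inhibition of growth.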 Bounds are passed on as bounds.

Some test systems named below: A498 renal; COLO 205 colon; DU-145 prostate; K-562 leukemia; MCF7 breast; PC-3 prostate; SNB-75 CNS; SW-620 colon.
Common to all, as to assay: DTP human tumour cell line panel, 48 h

For the compound `C=CC(=O)N1CCN(c2nc(=O)n(-c3c(C)ccnc3C(C)C)c3nc(-c4c(O)cccc4F)c(F)cc23)[C@@H](C)C1`, the GI50 is 11.8 µM in the assay on A498 renal; 39.9 µM with COLO 205 colon; 30.9 µM in the assay with DU-145 prostate; 23.2 µM in the assay with K-562 leukemia; 34.1 µM in the assay with MCF7 breast; 31.8 µM with PC-3 prostate. For the same compound, the results for the GI50 with SNB-75 CNS and in the assay with SW-620 colon were 36.1 µM and 36.8 µM, respectively. The TGI was over 54.1 µM in the assay with A498 renal; over 100 µM with COLO 205 colon; 98.3 µM in the assay with DU-145 prostate; over 85 µM in the assay on K-562 leukemia; over 100 µM in the assay on MCF7 breast; over 96.3 µM with PC-3 prostate. Besides, the TGI was over 91.4 µM in the assay with SNB-75 CNS and over 100 µM in the assay with SW-620 colon.
As to `COc1cc2cc(Oc3ccc(NC(=O)Nc4cccc(C(F)(F)F)c4)cc3)c(C)nc2cc1OC`, the GI50 with A498 renal was 1.29 µM; with COLO 205 colon it was 1.12 µM; with DU-145 prostate it was 2.78 µM; with K-562 leukemia, 1.73 µM; in the assay with MCF7 breast it was 1.34 µM; in the assay on PC-3 prostate, 1.39 µM. Further, the GI50 was 1.17 µM in the assay on SNB-75 CNS and 2.28 µM with SW-620 colon. Further, the TGI with A498 renal is 4.95 µM; with COLO 205 colon, 2.4 µM; in the assay on DU-145 prostate, 15.8 µM; in the assay with K-562 leukemia it was 14 µM; in the assay with MCF7 breast, 5.43 µM; in the assay on PC-3 prostate, 5.49 µM. In addition, the results for the TGI in the assay on SNB-75 CNS and in the assay with SW-620 colon were 6.18 µM and 11.1 µM, respectively.
For the compound `C#CCC(Cc1cnc2nc(N)nc(N)c2n1)c1ccc(C(=O)N[C@@H](CCC(=O)O)C(=O)O)cc1` (some centres undefined), the GI50 in the assay with A498 renal was over 100 µM; in the assay with COLO 205 colon, under 0.0159 µM; in the assay on DU-145 prostate, under 0.01 µM; in the assay on K-562 leukemia, under 0.01 µM; with MCF7 breast it was under 0.01 µM; in the assay on PC-3 prostate it was under 0.01 µM. Moreover, the GI50 in the assay with SNB-75 CNS is under 0.0502 µM; in the assay with SW-620 colon, under 0.01 µM. Besides, the TGI in the assay on A498 renal, in the assay with COLO 205 colon, in the assay with DU-145 prostate, in the assay on K-562 leukemia, in the assay on MCF7 breast and with PC-3 prostate was over 100 µM throughout. In addition, the TGI with SNB-75 CNS and in the assay with SW-620 colon was over 100 µM in each case.
In the case of `CC(C)[C@H](CO)Nc1nc(Nc2ccc(C(=O)NCCNS(=O)(=O)c3cccc4c(N(C)C)cccc34)c(Cl)c2)c2ncn(C(C)C)c2n1`, the GI50 was 1.83 µM in the assay on A498 renal; 1.76 µM in the assay on COLO 205 colon; 4.41 µM in the assay on DU-145 prostate; 3.92 µM in the assay with K-562 leukemia; 0.987 µM in the assay on MCF7 breast; 3.56 µM in the assay on PC-3 prostate. Also, the figures for the GI50 with SNB-75 CNS and in the assay with SW-620 colon were 1.75 µM and 2.56 µM, respectively. The TGI was 6.1 µM with A498 renal; 3.47 µM in the assay with COLO 205 colon; over 100 µM in the assay on DU-145 prostate; over 100 µM with K-562 leukemia; over 83 µM in the assay with MCF7 breast; over 100 µM in the assay with PC-3 prostate. The TGI with SNB-75 CNS and in the assay with SW-620 colon was over 100 µM in each case.
As to `Nc1c(Br)cc(Br)c2c1[nH]c(=O)c1ccccc12`, the GI50 was 1.68 µM in the assay on A498 renal; 22.1 µM with COLO 205 colon; 23.6 µM with DU-145 prostate; 37.3 µM in the assay with K-562 leukemia; 0.577 µM with MCF7 breast; 14.4 µM with PC-3 prostate. Moreover, the GI50 was 1.36 µM in the assay on SNB-75 CNS and 23.1 µM in the assay with SW-620 colon. The TGI was 4.86 µM in the assay on A498 renal; over 100 µM with COLO 205 colon; over 100 µM with DU-145 prostate; over 100 µM in the assay with K-562 leukemia; over 100 µM in the assay with MCF7 breast; over 100 µM with PC-3 prostate. In addition, the TGI is 3.77 µM in the assay with SNB-75 CNS and over 100 µM in the assay on SW-620 colon.
`Cc1cc2nc3c4cc(N)ccc4n(CCN(C)C)c3nc2cc1C`: the GI50 with A498 renal was 0.763 µM; with COLO 205 colon, 0.408 µM; with DU-145 prostate, 1.11 µM; with K-562 leukemia, 0.421 µM; in the assay on MCF7 breast, 0.494 µM; in the assay on PC-3 prostate it was 0.935 µM. The GI50 is 1.16 µM with SNB-75 CNS and 0.381 µM in the assay on SW-620 colon. Moreover, the TGI with A498 renal stood at 2.32 µM; with COLO 205 colon, 5.27 µM; with DU-145 prostate, 11.7 µM; in the assay on K-562 leukemia it was 8.98 µM; with MCF7 breast, 7.96 µM; with PC-3 prostate it was 8.67 µM. Moreover, the TGI came to 6.82 µM in the assay on SNB-75 CNS and 10.9 µM in the assay with SW-620 colon.
As to `COc1cc(-c2nn(-c3cccc(NC(=O)Nc4cc(C(F)(F)F)cc(C(F)(F)F)c4)c3)cc2-c2ccncc2)ccc1Cl`, the GI50 in the assay on A498 renal was 0.587 µM; in the assay on COLO 205 colon it was 0.817 µM; with DU-145 prostate, 0.987 µM; with K-562 leukemia it was 0.279 µM; with MCF7 breast it was 0.563 µM; with PC-3 prostate, 0.176 µM. The GI50 is 0.961 µM in the assay on SNB-75 CNS and 0.494 µM with SW-620 colon. The TGI in the assay on A498 renal came to 2.13 µM; with COLO 205 colon, 1.6 µM; in the assay with DU-145 prostate, 5.59 µM; with K-562 leukemia it was 3.03 µM; in the assay with MCF7 breast it was 8.59 µM; in the assay with PC-3 prostate, 1.18 µM. The figures for the TGI in the assay on SNB-75 CNS and in the assay on SW-620 colon were 2.74 µM and 2.94 µM, respectively.
In the case of `CCn1c(CN2CCN(Cc3ccccc3)CC2)nc2cc(NC(=O)c3cccs3)ccc21`, the GI50 with A498 renal was 6.05 µM; with COLO 205 colon, 13.5 µM; with DU-145 prostate, 32.1 µM; in the assay on K-562 leukemia, 15.1 µM; with MCF7 breast, 19.5 µM; with PC-3 prostate it was 20.8 µM. Besides, the GI50 is 12.4 µM with SNB-75 CNS and 17.5 µM in the assay with SW-620 colon. Further, the TGI in the assay with A498 renal is 29.6 µM; with COLO 205 colon it was 29.3 µM; in the assay with DU-145 prostate, over 100 µM; with K-562 leukemia, 87.9 µM; in the assay with MCF7 breast, 59.9 µM; in the assay on PC-3 prostate, over 100 µM. In addition, the TGI worked out at 30.6 µM with SNB-75 CNS and 43.4 µM in the assay with SW-620 colon.
For the compound `O=C1C(=O)c2ccccc2C(O)=C1CC=C(Br)Br`, the GI50 is 6.21 µM in the assay with A498 renal; 10.3 µM in the assay with COLO 205 colon; 9.36 µM with DU-145 prostate; 1.33 µM with K-562 leukemia; 4.29 µM in the assay on MCF7 breast; 3.05 µM with PC-3 prostate. The GI50 was 2.58 µM in the assay with SNB-75 CNS and 3.07 µM with SW-620 colon. In addition, the TGI in the assay with A498 renal was 31.3 µM; in the assay with COLO 205 colon it was 24.5 µM; with DU-145 prostate it was over 100 µM; with K-562 leukemia, over 100 µM; in the assay with MCF7 breast, over 100 µM; with PC-3 prostate it was 91.5 µM. For the same compound, the TGI in the assay with SNB-75 CNS is 59.5 µM; with SW-620 colon it was over 100 µM.

As usually defined, the GI50 is the concentration giving 50% growth inhibition. As usually defined, the TGI is the concentration at which net growth stops. A high value points to less potent growth arrest.
